Assay results published in US20020197233A1, “Methods of treating central nervous system ischemic or hemorrhagic injury using anti alpha4 integrin antagonists” (priority 1999, published 2002).

Tests used:
[1] = tested on: spontaneously hypertensive rats (SHRs); experiment: Reversible middle cerebral artery occlusion (MCAO), infarct volume, spontaneously hypertensive rats; assay type: in vivo, rat; conditions: 300 ng/kg/min continuous subcutaneous infusion, vs vehicle treated controls, 24 h after induction of cerebral ischemia (1 h MCAO)
Description: (§1) Male Sprague Dawley (SD) or spontaneously hypertensive rats (SHRS) were anesthetized using isoflurane and the right middle cerebral artery (MCAO) occluded by insertion of a 4-0 nylon monofilament up the internal carotid artery to the origin of the middle cerebral artery (MCA) (Zea Longa et al, 1989 Stroke 20:84). After 1 h the filament was retracted, the ischemic territory reperfused and the animal allowed to recover. After 24 h the rats were sacrificed, at which time brains were removed and analyzed histologically to quantify infarct volume.
(§2) Groups of animals were treated with either vehicle (PBS) or the bradykinin B2 receptor antagonist Hoe 140 (Hoechst) by continuous subcutaneous infusion via osmotic mini-pumps. Primed mini osmotic pumps (Alza Corp.,) were implanted into the subcutaneous space at the scruff of the neck immediately prior to induction of cerebral ischemia. The pumps were loaded to release 300 ng/kg/min Hoe 140 and delivered compound or vehicle at a rate of 8 μl/h.
(§3) In a separate experiment groups of animals were treated with either vehicle (sterile isotonic saline), TA2 (mouse anti rat VLA4: Seikagaku America Inc.) or an isotype control antibody (mouse anti-human LFA3: obtained from Biogen, Inc.). All treatments were administered 24 h before surgery intravenously (2.5 mg/kg or appropriate volume of vehicle)
(§4) Vehicle treated control rats that underwent MCAO sustained extensive lesions throughout cortical and subcortical regions of the brain. The ischemic hemisphere was markedly swollen and significant behavioral deficits were observed (eg. hemiparesis resulting in rotation and limb weakness). Spontaneously hypertensive rats sustained more extensive and reproducible brain infarcts than Sprague Dawley rats subjected to the same surgical procedure. Infarct volumes are expressed as mean values+/−s.e.m. Statistical analysis was performed using an unpaired Students' t-test (* denotes p<0.05, ** denotes p<0.01).

Sprague Dawley (SD) rats = experiment: Reversible middle cerebral artery occlusion (MCAO), infarct volume, Sprague Dawley rats; assay type: in vivo, rat; conditions: 300 ng/kg/min continuous subcutaneous infusion, vs vehicle treated controls, 24 h after induction of cerebral ischemia (1 h MCAO)
Description: as §1, §2, §3, §4

Question: For Hoe 140, which “reduction of cortical infarct volume” value [1] is on record?
Answer: The value was 43%.

Question: And the “reduction of subcortical infarct volume” value [1]?
Answer: The value was 17%.

Question: What about the “reduction of total infarct volume” value [1] of the same substance?
Answer: The value was 37%.

Question: And the “reduction of cortical infarct volume” value (Sprague Dawley (SD) rats)?
Answer: The value was 93%.

Question: And the “reduction of subcortical infarct volume” value (Sprague Dawley (SD) rats)?
Answer: Its value is 24%.

Question: And the “reduction of total infarct volume” value (Sprague Dawley (SD) rats)?
Answer: The value was 57%.
